Experimental data published in the NIST ThermoML archive (doi:10.1021/je100610v).
± gives the expanded uncertainty stated by the source.

Assay: molar heat capacity at constant pressure; xn = mol fraction of the nth substance listed
Details: 101 kPa, Liquid

ClCCCCCCCl [1,6-dichlorohexane] + CCCCCCC
molar heat capacity at constant pressure [J/K/mol]
Details	x1 = 0.1033	x1 = 0.2005	x1 = 0.3004	x1 = 0.397	x1 = 0.5025	x1 = 0.5978	x1 = 0.7012	x1 = 0.7975	x1 = 0.8993	x1 = 1
293.15 K	224.18 ± 1.7	225.58 ± 1.8	226.93 ± 1.8	228.73 ± 1.8	230.53 ± 1.8	232.22 ± 1.8	233.79 ± 1.8	235.58 ± 1.8	237.46 ± 1.8	239.21 ± 1.9
294.15 K	224.47 ± 1.7	225.71 ± 1.8	227.22 ± 1.8	229.08 ± 1.8	230.89 ± 1.8	232.55 ± 1.8	234 ± 1.8	235.86 ± 1.8	237.73 ± 1.8	239.5 ± 1.9
295.15 K	224.85 ± 1.7	226.27 ± 1.8	227.61 ± 1.8	229.51 ± 1.8	231.34 ± 1.8	232.94 ± 1.8	234.33 ± 1.8	236.23 ± 1.8	238.1 ± 1.8	239.69 ± 1.9
296.15 K	225.28 ± 1.8	226.73 ± 1.8	227.98 ± 1.8	229.89 ± 1.8	231.84 ± 1.8	233.25 ± 1.8	234.73 ± 1.8	236.51 ± 1.8	238.39 ± 1.9	240.02 ± 1.9
297.15 K	225.7 ± 1.8	227.04 ± 1.8	228.31 ± 1.8	230.27 ± 1.8	231.98 ± 1.8	233.48 ± 1.8	235.05 ± 1.8	236.81 ± 1.8	238.57 ± 1.9	240.35 ± 1.9
298.15 K	226.02 ± 1.8	227.35 ± 1.8	228.65 ± 1.8	230.41 ± 1.8	232.13 ± 1.8	233.77 ± 1.8	235.36 ± 1.8	237.1 ± 1.8	238.92 ± 1.9	240.64 ± 1.9
299.15 K	226.42 ± 1.8	227.84 ± 1.8	228.96 ± 1.8	230.75 ± 1.8	232.24 ± 1.8	234 ± 1.8	235.65 ± 1.8	237.33 ± 1.8	239.06 ± 1.9	240.85 ± 1.9
300.15 K	226.82 ± 1.8	228.08 ± 1.8	229.21 ± 1.8	231.06 ± 1.8	232.49 ± 1.8	234.22 ± 1.8	236.05 ± 1.8	237.68 ± 1.8	239.39 ± 1.9	241.15 ± 1.9
301.15 K	227.16 ± 1.8	228.49 ± 1.8	229.61 ± 1.8	231.57 ± 1.8	232.94 ± 1.8	234.6 ± 1.8	236.34 ± 1.8	238.04 ± 1.8	239.79 ± 1.9	241.46 ± 1.9
302.15 K	227.48 ± 1.8	228.83 ± 1.8	230 ± 1.8	231.8 ± 1.8	233.35 ± 1.8	234.96 ± 1.8	236.63 ± 1.8	238.29 ± 1.9	240.08 ± 1.9	241.8 ± 1.9
303.15 K	227.86 ± 1.8	229.13 ± 1.8	230.36 ± 1.8	232.08 ± 1.8	233.73 ± 1.8	235.31 ± 1.8	236.93 ± 1.8	238.61 ± 1.9	240.37 ± 1.9	242.06 ± 1.9
304.15 K	228.19 ± 1.8	229.46 ± 1.8	230.7 ± 1.8	232.56 ± 1.8	234.04 ± 1.8	235.48 ± 1.8	237.2 ± 1.8	238.86 ± 1.9	240.64 ± 1.9	242.34 ± 1.9
305.15 K	228.57 ± 1.8	229.83 ± 1.8	230.91 ± 1.8	232.74 ± 1.8	234.33 ± 1.8	235.88 ± 1.8	237.53 ± 1.8	239.21 ± 1.9	240.92 ± 1.9	242.62 ± 1.9
306.15 K	228.88 ± 1.8	230.1 ± 1.8	231.36 ± 1.8	233.13 ± 1.8	234.4 ± 1.8	236.03 ± 1.8	237.84 ± 1.8	239.44 ± 1.9	241.2 ± 1.9	242.83 ± 1.9
307.15 K	229.3 ± 1.8	230.51 ± 1.8	231.65 ± 1.8	233.51 ± 1.8	235.07 ± 1.8	236.5 ± 1.8	238.18 ± 1.8	239.76 ± 1.9	241.48 ± 1.9	243.21 ± 1.9
308.15 K	229.71 ± 1.8	230.91 ± 1.8	232.08 ± 1.8	233.76 ± 1.8	235.33 ± 1.8	236.85 ± 1.8	238.49 ± 1.9	240.12 ± 1.9	241.83 ± 1.9	243.49 ± 1.9
309.15 K	230.05 ± 1.8	231.19 ± 1.8	232.35 ± 1.8	234.03 ± 1.8	235.45 ± 1.8	237.17 ± 1.8	238.74 ± 1.9	240.37 ± 1.9	242.06 ± 1.9	243.73 ± 1.9
310.15 K	230.4 ± 1.8	231.55 ± 1.8	232.73 ± 1.8	234.35 ± 1.8	235.77 ± 1.8	237.52 ± 1.8	239.07 ± 1.9	240.64 ± 1.9	242.36 ± 1.9	244 ± 1.9
311.15 K	230.86 ± 1.8	231.97 ± 1.8	233.11 ± 1.8	234.88 ± 1.8	236.41 ± 1.8	237.89 ± 1.8	239.43 ± 1.9	241.08 ± 1.9	242.73 ± 1.9	244.35 ± 1.9
312.15 K	231.16 ± 1.8	232.33 ± 1.8	233.45 ± 1.8	235.01 ± 1.8	236.75 ± 1.8	238.16 ± 1.8	239.72 ± 1.9	241.32 ± 1.9	243.02 ± 1.9	244.68 ± 1.9
313.15 K	231.55 ± 1.8	232.68 ± 1.8	233.79 ± 1.8	235.43 ± 1.8	236.93 ± 1.8	238.39 ± 1.9	240.06 ± 1.9	241.64 ± 1.9	243.28 ± 1.9	244.91 ± 1.9
